The test system of experiment [1] is encephalomyocarditis virus. Briefly: Protection of mice against encephalomyocarditis virus infection. The experiment is classed as in vivo. The settings on record: 100 LD50 virus, once intraperitoneally 24 hours after infection, 30 µg/kg. How it is done:
Studies ere carried out on mongrel mice of both sexes with initial body mass 10-11 g. The control and experimental groups included 30 animals each. Compound XLIV and the reference drug interferon inducer Ridostine were administered once intraperitoneally 24 hours after infection of mice with encephalomyocarditis virus at doses 30 µg/kg and 5.0 mg/kg, respectively. Encephalomyocarditis virus was administered at a dose 100 LD50. Antiviral activity was determined by change in mean lifetime (MLT) of mice and by the degree of protection against lethal viral infection.

Experiment [2] relates to Isolate HIV-1/IV17 of type 1 human immunodeficiency virus. Briefly: Viability of MT-4 cells acutely infected with HIV-1. The experiment is classed as cell-based. The following applies: day 7. As to the method: Study was carried out on the culture of human lymphoblastoid cells MT-4. Isolate HIV-1/IV17 of type 1 human immunodeficiency virus from the collection of the D.I.Ivanovsky Institute for Virology was used in experiment. The test compounds of general formula (I): III, VI, VII were introduced into cellular culture at concentrations 1.0; 0.1 and 0.01 µg/ml. The reference drug Azidothymidine was introduced at a dose 0.05 µM/ml. The compounds were introduced into the culture of MT-4 cells at a dose 1000 TCD50 one hour prior to virus introduction. Viability of MT-4 cells was estimated by day 7 of experiment.
Viability of cells was the main efficacy parameter of the test compounds.

Experiment [3] relates to thromboxane A2 and prostacycline. Briefly: Prostacycline to thromboxane ratio in mice with Lewis pulmonary carcinoma. It counts as in vivo, C57B1 male mice. The following applies: mice with transplanted Lewis carcinoma, day 24; 500 µg/kg per day in drinking water. How it is done:
Experiments were carried out on C57B1 male mice weighing 18-20 g. Lewis pulmonary carcinoma (generation 3) transplantation was performed according to a conventional technique [Experimental estrimation of antitumor drugs in the U.S.S.R. and the U.S.A. edited by E.P.Sof'ina, A.B.Syrkin, A.Goldin, A.Kline. Moscow, Meditsina publishers (1980), 296 pp.]. Each group included 8 animals. Administration of compound III at a dose 500 µg/kg per day in drinking water was commenced since 24 hours after tumor transplantation.
Determination of thromboxane A2 and prostacycline was done according to the technique described in example 35. By day 24 of experiments animals were sacrified and the test parameters were determined.
Groups of animals: • Group 1 - intact control. • Group 2 - mice with transplanted Lewis carcinoma. • Group 3 - mice with transplanted Lewis carcinoma + compound III.

The next experiment concerns mongrel rats. Briefly: Antiischemic activity: necrosis zone after coronary artery occlusion (myocardial infarction). It counts as in vivo. The settings on record: 4 hours after coronary artery occlusion, oral 4 days. How it is done: Antiischemic activity of a compound was assessed by an integral test, i.e. effect on the necrosis zone area following reproduction of myocardial infarction in mongrel rats weighing 250-300 g.
Effect of a compound on the necrosis zone area was studied in 4 hours after arterial occlusion in rats using a differential indicator method [Sernov L.N., Gatsura V.V. A differential indicator method for determinig ischemic and necrotic zone in experimental myocardial infarction in rats. Bulletin of Experimental Biology and Medicine (1989), No 5, pp. 534-535]. All the painful manipulations were performed on animals under Ethaminal anesthesia (Ethaminal - 40 mg/kg intraperitoneally). Experiment was carried out in 15 hours after the last compound administration. Each group included 8 animals.
Groups of animals: • Group 1 - intact control -administration of normal saline four times. • Groups 2 and 3 - oral administration of the compound III at doses respectively 50 and 500 µg/kg for 4 days. • Group 4 - single intraperitoneal administration of Nicorandil at a dose 1 mg/kg immediately after occlusion.

The next experiment relates to Wistar rats. Briefly: Non-infectious pulmonary granulomatosis model (aerosol Sephadex A-25). The settings on record: intragastral 50 mg/kg once daily.
Experiment [4] deals with Lewis pulmonary carcinoma (LLC). Briefly: LLC metastasizing with surgical resection of the primary tumor node, alone and with Cyclophosphane. It counts as in vivo, C57BL/6 female mice. The settings on record: day 29. How it is done:
An important property of the compounds is their ability to manifest pharmacological activity on the model with resection of the primary tumor node and not to lower therapeutic efficacy of respective antitumor drugs. […] Surgical resection of the primary tumor node was performed by day 13 following tumor transplantation. The test anitumor compounds were administered according to two dosage regimens:
Dosage regimen 1 - animals were administered compound III from day 1 till day 13 of experiment at a dose 500 µg/kg (group 1); Cyclophosphane was administered intraperitoneally two times before operation with 96 hour interval at a dose 100 µg/kg (group 2); combined administration of compound III and Cyclophosphane was similar to administration of substances in groups 1 and 2 (group 3). Number of metastases was calculated by day 29 of experiment;
Dosage regimen 2 - animals were administered compound III from day 14 of experiment (commencement of administration 24 hours post operation) till day 28 (group 4); Cyclophosphane was administered twice post operation with 96 hour interval at a dose 100 µg/kg (group 5); combined administration of compound III and Cyclophosphane similar to administration of substances in groups 4 and 5 (group 6). Antimetastatic efficacy of the drugs was considered by day 29 of experiment.

Setting [5] is: Wistar rats, day 7 after aerosol Sephadex A-25.
[6] abbreviates: regimen 1, prior to operation: day 1 till day 13, 500 µg/kg.
Where [7] appears, read: regimen 2, post operation: day 14 till day 28.

Where “and” joins values, the source holds several entries; their conditions need not be identical. Equal entries are not always repeated. Marks after values point to notes of the source that are not given here.

Experimental for Wistar rats: Antiinflammatory and immunomodulating effect of the compound III with intragastral administration was studied on the non-infectious pulmonary granulomatosis model.
20 female 4 months old Wistar rats weighing 200-220 g were used in exepriment.
Sephadex A-25 at a dose 5 mg per 1 kg of body mass, as administered to rats under ether anesthesia using an original dosing device for inhalation administering dry powders manufactured at the Scientific-Research Institute for Medical Instrument-Making. […] Compound III was administered intragastrally using a gastric probe at a dose 50 mg per 1 kg of body mass and immediately after that, single aerosol administration of Sephadex A-25 was performed according to the earlier described technique. Then compound III was administered intragastrally once daily for 6 days at a dose 50 mg/kg of body mass in the form of water solution. Rats were examined by day 7 after commencement of administering compound III and Sephadex A-25.
Bronchoalveolar lavage was obtained under Hexenal anesthesia. Cytosis, i.e. absolute number of cells in 1 ml was determined in the bronchoalveolar lavage fluid. Endopulmonal cytogram (in percent) was calculated in the smears stained according to Romanovsky-Gimza. […] Histological examination of lungs stained with hematoxylin and eosine was performed. Volume density of alveolitis and emphysema was determined using the point count method.

Take γ-L-glutamylhistamine [compound XLIV]: in experiment [1], the “MLT, days” value is 12.5* days; the “Protection degree, percent” value came to 17.0%; the “Survival rate, percent” value is recorded as 30.3* percent.

Turning to `O=C(O)CCCC(=O)NCCc1c[nH]cn1` [compound III, N-GLUTARYLHISTAMINE], the “protective effect against cytodestructive HIV-1 effect (viability of MT-4 cells)” value in experiment [2] (1.0 and 0.1 µg/ml) was “comparable with the effect of the reference drug Azidothymidine”. For the same compound, in experiment [2] (Human immunodeficiency virus 1, MT4, 168 h, 0.01 µg/ml, series 1 (infected cells 10-17, non-infected 90), read-out: Viability of cells in percent), the viability at 0.01 µg/mL was 18%. Also, the viability at 0.1 µg/mL in experiment [2] (Human immunodeficiency virus 1, MT4, 168 h, 0.1 µg/ml, series 1 (infected cells 10-17, non-infected 90), read-out: Viability of cells in percent) turned out to be 39%. The viability at 1 µg/mL in experiment [2] (Human immunodeficiency virus 1, MT4, 168 h, 1.0 µg/ml, series 1 (infected cells 10-17, non-infected 90), read-out: Viability of cells in percent) is 68%. Besides, in experiment [3], the Prostacycline is 5.80 ± 0.75*^2, the “Ratio 6-keto-PGF1α :TXB2” value is on record as 0.80 ± 0.11*^2 and the “Thromboxane A2” value was 7.23 ± 0.18*^C. In the experiment on mongrel rats (50 µg/kg), the “Ischemia zone, percent to the total myocardial mass” value is 27,2 ± 2,8%; the “Necrosis zone percent to myocardial zone” value is reported as 56,8 ± 2,7%; the “Necrosis zone, percent to the total myocardial mass” value was 15,4 ± 1,7%. Besides, in the experiment on mongrel rats (500 µg/kg), the “Ischemia zone, percent to the total myocardial mass” value is on record as 31,1 ± 3,1%; the “Necrosis zone percent to myocardial zone” value is reported as 54,3 ± 2,1%; the “Necrosis zone, percent to the total myocardial mass” value is 17,8 ± 1,0%. In the experiment on Wistar rats (setting [5]), the “Volume density in percent: Alveolitis” value was 3.8±0.1% and 3.8 ± 1.0%; the “Volume density in percent: Emphysema” value is given as 11.2±3.2%. Besides, in the experiment on Wistar rats (bronchoalveolar lavage, day 7), the “Cytosis (absolute number of cells in 1 ml)” value amounted to 0.169 ± 0.054, the “Endopulmonary cytogram in percent: Lymphocytes” value is given as 7.6 ± 1.5%, the “Endopulmonary cytogram in percent: Macrophages” value is recorded as 75.2 ± 4.5% and the “Endopulmonary cytogram in percent: Neutrophils” value turned out to be 16.8 ± 2.6%. Further, the “Volume density of lymphoid follicles in percent” value in the experiment with Wistar rats (lymphoid tissue associated with bronchi, day 7) was 34.7 ± 10.3%. In addition, in experiment [4] (setting [6]), the “Mean number of metastases” value is 32.0 ± 11.8, the Metastasizing inhibition percent is given as 8.0% and the “Metastasizing rate (%)” value is on record as 100%. In experiment [4] (setting [7]), the “Mean number of metastases” value was 28.6 ± 8.5, the Metastasizing inhibition percent came out at 22.9% and the “Metastasizing rate (%)” value came to 100%.

What is called viability is a read-out of living cells in per cent, often relative to untreated cells.

These data come from EP2229935A1, “Peptide derivatives or pharmaceutically acceptable salts thereof, method for producing the same, use of said derivatives and pharmaceutical composition” (Nebolsin, Vladimir Evgenievich, priority 1997, dated 1999).
